Reference: US9040568B2, “Pharmaceutical compositions for the treatment of pain” (AbbVie Inc., priority 2009, dated 2015)
Where a name gives a salt, the structure may show the parent alone.

Tests used:
[1] = molecular target: T1, human α4β2 nicotinic acetylcholine receptor subtype expressed in HEK-293 cells (Homo sapiens, UniProt P17787+P43681); assay: Calcium flux assay (FLIPR) in HEK-293 cells expressing human α4β2; type: cell-based
T1 construct: expressed in transfected cells
Experimental: Calcium Flux Assays Using Cells Expressing nAChR Subtypes
Human embryonic kidney (HEK) 293 cells stably expressing human α4β2 or α3β4 combinations are grown to confluency in 162 cm^2 tissue culture flasks in DMEM media supplemented with 10% FBS and 25 μg/ml zeocin and 200 μg/ml hygromycin B. IMR-32 neuroblastoma cells (ATCC) are grown to confluency in 162 cm^2 tissue culture flasks in minimum essential media supplemented with 10% FBS and 1 mM sodium pyruvate, 1% non-essential amino acids and 1% antibiotic-antimycotic. The cells are then dissociated using cell dissociation buffer and 100-150 μl per well of 3.5×10^5 cells/ml cell suspension (˜50,000-100,000 cells/well) was plated into 96-well black plates (poly-D-lysine precoated) with clear bottom and maintained for 24-48 hours in a tissue culture incubator at 37° C. under an atmosphere of 5% CO2: 95% air. Other clonal cell lines or primary cell cultures that express endogenous α4* nicotinic receptors may also be used in this assay. Calcium flux was measured using calcium-3 assay kit (Molecular Devices, Sunnyvale, Calif.) or fluo-4 (Invitrogen). A stock solution of the dye was prepared by dissolving each vial supplied by the vendor in Hank's balanced salt solution buffer (HBSS) or 150 mM NMDG, 20 mM CaCl2 containing 10 mM HEPES, The stock solution was diluted 1:20 using the same buffer before use. The growth media was removed from the cells. The cells were loaded with 100 μl of the dye per well and incubated at room temperature for up to one hour for HEK 293 clonal stable cell lines or 30 minutes-45 minutes at 37° C. for IMR-32 cells Fluorescence measurements were read simultaneously from all the wells by a Fluorometic Imaging Plate Reader (FLIPR) at an excitation wavelength of 480 nm and an emission wavelength of 520 nm. Baseline fluorescence was measured for the first 6 seconds at which 3× concentrations of modulator/test compounds were added to the cell plate at 50 μl and incubated for five minutes. The fluorescence intensity was captured every second for the first 1 minute followed by every 5 seconds for an additional 4 minutes. This procedure was followed by 50 μl of 4× concentration of agonist and readings were taken for a period of 3-5 minutes as described above. Data was normalized to maximal responses and plotted as a function of concentration. The concentration dependence of changes fluorescence responses was fitted by nonlinear regression analysis (GraphPad Prism, San Diego, Calif.) to obtain EC50 values.
The positive allosteric modulator effects on α4β2nAChRs exemplified by 3-(3-pyridin-3-yl-1,2,4-oxadiazol-5-yl)benzonitrile (Compound 1) and 3,5-di(pyridin-3-yl)-1,2,4-oxadiazole (Compound 2) can be identified by measuring their potentiating effect to fluorescence changes in intracellular calcium using a fluorimetric plate reader. The potentiating effect of an α4β2 modulator on α4β2 receptor can also be illustrated by concentration responses to α4β2 agonists, for example 5-[(2R)-azetidin-2-ylmethoxy]-2-chloropyridine (Compound A) and (3R)-1-pyridin-3-ylpyrrolidin-3-amine (Compound B), in presence of a fixed concentration of PAM. […] In addition to compound A and B, other known nicotinic agonists can be left-shifted in presence of α4β2 PAM such as 3-(3-(pyridin-3-yl)-1,2,4-oxadiazol-5-yl)benzonitrile (Compound 1, FIG. 2C). […]

α4β2 nAChR = α4β2 nAChR (UniProt P09483+P12390); assay: [^3H]-cytisine binding assay
Text: One manner for characterizing α4β2 receptor ligands is by a binding assay. […] The [^3H]-cytisine binding assays have been well reported; however, further details for carrying out the assays can be obtained in International Publication No. WO 99/32480; U.S. Pat. Nos. 5,948,793 and 5,914,328; WO 2004/018607; U.S. Pat. No. 6,809,105; WO 00/71534; and U.S. Pat. No. 6,833,370.

[2] = system: nerve injury induced mechanical allodynia; assay: Chung model of neuropathic pain (L5-L6 spinal nerve ligation, tactile allodynia, von Frey); type: in vivo, rat
Experimental: To assess whether α4β2 PAM can increase antinociceptive responses of agonists in vivo, the following study was conducted. The materials and methods used to accomplish the study follow.
Male Sprague-Dawley rats (Charles River, Wilmington, Mass.) weighing 120-150 grams at time of surgery were utilized. These animals were group housed in AAALAC approved facilities at Abbott Laboratories in a temperature-regulated environment with lights on between 0700 and 2000 hours. Food and water was available ad libitum except during testing. All animal handling and experimental protocols were approved by an institutional animal care and use committee (IACUC). All experiments were performed during the light cycle.
5[(2R)-Azetidin-2-ylmethoxy]-2-chloropyridine (Compound A, 1-100 nmol/kg) and 3-(3-pyridin-3-yl)-1,2,4-oxadiazol-5-yl)benzonitrile (α4β2 PAM Compound 1, 1-35 μmol/kg, i.p.) was used. Compound A and D was prepared in saline and injected in solution in a volume of 2 ml/kg body weight 30 minutes before behavioral evaluation. Compound 1,3-(3-(pyridin-3-yl)-1,2,4-oxadiazol-5-yl)benzonitrile, was prepared in 30% hydroxybetacyclodextrin and injected in solution in a volume of 4 ml/kg body weight immediately before Compound A. For studies with Compound D, the doses tested ranged from 0.3-30 μmol/kg i.p.
To produce neuropathic pain, tight ligation of the L5-L6 spinal nerves was performed. As previously described in detail by Kim and Chung (Kim S H and Chung J M (1992), Pain 50: 355), following sterilization procedures, a 1.5 cm incision was made dorsal to the lumbosacral plexus. The paraspinal muscles (left side) were separated from the spinous processes, the L5 and L6 spinal nerves isolated, and tightly ligated with 3-0 silk thread. Following hemostasis, the wound was sutured and coated with antibiotic ointment. The rats were allowed to recover and then placed in a cage with soft bedding for 7-14 days before behavioral testing for mechanical allodynia.
Tactile allodynia was measured using calibrated (force; g) von Frey filaments (Stoelting, Wood Dale, Ill.). Briefly, rats were placed into individual plexiglass containers and allowed to acclimate for 15-20 minutes before testing. Withdrawal threshold was determined by increasing and decreasing stimulus intensity and estimated using a Dixon non-parametric test (Chaplan et al., 1994; Chaplan S R, Bach F W, Pogrel J W, Chung J M and Yaksh T L (1994) J Neurosci Methods 53:55-63). Only rats with threshold scores<4.5 g were considered allodynic and utilized in further testing. A percent of maximal possible effect (% M.P.E.) of the tested compounds was calculated according to the formula: ([post-drug threshold]-[baseline threshold])/([maximum threshold]-[baseline threshold])×100%, where maximum threshold was equal to 15 g.
Analysis of the in vivo data was carried out using analysis of variance. Where appropriate, Bonferroni's Multiple Comparison Test was used for post-hoc analysis. The level of significance was set at p less than 0.05. Data are presented as mean±S.E.M.

α4β2nAChR modulator site = molecular target: T2, α4β2nAChR modulator site (Homo sapiens, UniProt P17787+P43681); assay: [^3H]-POB binding, membrane enriched fractions from human cortex; details: saturation binding, human frontal cortex membranes, 4° C.
T2 construct: membrane enriched fractions from human cortex (ABS Inc., Wilmington, Del.); tissue ABS Inc., Wilmington, Del; host or cells: human cortex (frontal cortex) membrane enriched fractions
T2 sequence (P43681 29-627 limits assumed): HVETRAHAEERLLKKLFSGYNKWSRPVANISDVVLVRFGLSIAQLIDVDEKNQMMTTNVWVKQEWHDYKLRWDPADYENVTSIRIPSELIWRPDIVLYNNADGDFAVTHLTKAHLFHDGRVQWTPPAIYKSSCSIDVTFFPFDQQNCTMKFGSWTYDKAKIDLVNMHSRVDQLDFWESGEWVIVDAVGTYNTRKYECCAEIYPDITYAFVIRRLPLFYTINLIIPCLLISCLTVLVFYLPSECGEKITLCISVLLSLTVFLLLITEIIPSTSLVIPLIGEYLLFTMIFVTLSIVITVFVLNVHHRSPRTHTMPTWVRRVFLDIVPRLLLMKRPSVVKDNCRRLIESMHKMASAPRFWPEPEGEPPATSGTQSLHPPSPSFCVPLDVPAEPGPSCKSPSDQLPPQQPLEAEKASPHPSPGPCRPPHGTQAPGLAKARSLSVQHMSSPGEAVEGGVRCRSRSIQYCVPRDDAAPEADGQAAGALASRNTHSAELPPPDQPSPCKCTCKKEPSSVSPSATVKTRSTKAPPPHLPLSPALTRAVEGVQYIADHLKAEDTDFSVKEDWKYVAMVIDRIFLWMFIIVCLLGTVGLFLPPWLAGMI
T2 sequence (P17787 26-502): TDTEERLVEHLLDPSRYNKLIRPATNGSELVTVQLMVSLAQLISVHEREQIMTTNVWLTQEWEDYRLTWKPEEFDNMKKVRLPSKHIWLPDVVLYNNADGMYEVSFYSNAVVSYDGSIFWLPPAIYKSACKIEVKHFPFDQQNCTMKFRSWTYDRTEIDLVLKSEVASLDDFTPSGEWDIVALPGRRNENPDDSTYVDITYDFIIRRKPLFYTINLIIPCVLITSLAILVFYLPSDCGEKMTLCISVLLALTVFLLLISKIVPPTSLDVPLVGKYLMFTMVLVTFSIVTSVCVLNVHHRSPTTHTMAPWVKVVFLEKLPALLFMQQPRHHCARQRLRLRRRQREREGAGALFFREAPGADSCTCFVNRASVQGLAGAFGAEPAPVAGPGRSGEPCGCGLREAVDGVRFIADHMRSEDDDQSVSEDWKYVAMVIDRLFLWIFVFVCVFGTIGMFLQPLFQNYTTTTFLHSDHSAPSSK
Experimental: In addition to the assays previously described for assessing nicotinic acetylcholine receptor positive allosteric modulators (fluoroscence-based measurements, electrophysiology measurements using Xenopus oocytes or cell lines), the receptor interactions of positive allosteric modulators at α4β2 nAChRs also can be evaluated according to the [^3H]-POB binding assay, which was performed as described below.
[^3H]-POB ([^3H]-3-(5-(pyridin-3-yl)-1,2,4-oxadiazol-3-yl)benzonitrile) binding to a α4β2nAChR modulator site was determined using membrane enriched fractions from human cortex (ABS Inc., Wilmington, Del.). […] Non-specific binding was determined in the presence of 30 μM unlabeled 3-(5-(pyridin-3-yl)-1,2,4-oxadiazol-3-yl)benzonitrile. Under these conditions, saturable binding of [^3H]-POB binding was measured in membrane enriched fractions from human frontal cortex (FIG. 10). […]
For use in concentration-inhibition assays, seven log-dilution concentrations of test compounds containing […] of protein, and 50 nM [^3H]-POB (16.4 Ci/mmol) were incubated in a final volume of 500 μL for 75 minutes at 4° C. in duplicate. Non-specific binding was determined in the presence of 30 μM 3-(5-(pyridin-3-yl)-1,2,4-oxadiazol-3-yl)benzonitrile. […] IC50 values were determined by nonlinear regression in Microsoft® Excel or Assay Explorer. […]

[3] = co-applied with the PAM Compound 1, α4β2 nAChRs

T1 sequence (P43681 29-627 limits assumed): as the sequence (P43681 29-627 limits assumed) above
T1 sequence (P17787 26-502): as the sequence (P17787 26-502) above

For `c1ccc2ncc(N3C[C@@H]4CN[C@@H]4C3)cc2c1` [Compound D, (1S,5S)-3-(3,6-diaza-bicyclo[3.2.0]hept-3-yl)-quinoline], the calcium response [1, 3] was “evoked robust responses”, the calcium response ([1]; ligand alone, α4β2 nAChRs) was “does not evoke a response” and the Ki (α4β2 nAChR) was 6 nM. The “efficacy in neuropathic pain” value ([2]; administered alone) was “ineffective in reversing neuropathic pain” and the “efficacy in neuropathic pain” value ([2]; combined with the PAM (Compound 1)) was “significant efficacy can be realized”.

For `Fc1ccc(-c2nc(-c3cncnc3)no2)cc1F` [Example 101, 5-(3,4-difluorophenyl)-3-(pyrimidin-5-yl)-1,2,4-oxadiazole tosylate], the “Activity (allosteric effects-potentiation of fluorescence responses)” value [1] was “a (“a” denotes as activity range from 200-400%)”.

With `Cc1ncccc1OC[C@@H]1CCCN1` [Compound C, 2-methyl-3-(2-(S)-pyrrolidinylmethoxy)pyridine] the calcium response [1, 3] was “evoked robust responses” and the calcium response ([1]; ligand alone, α4β2 nAChRs) was “does not evoke a calcium response”.

Work on `[3H]c1cncc(-c2nc(-c3cccc(C#N)c3)no2)c1` [[^3H]-POB, [^3H]-3-(5-(pyridin-3-yl)-1,2,4-oxadiazol-3-yl)benzonitrile] yielded a Bmax (α4β2nAChR modulator site) of 2900±500 fmol/mg protein.
